From US20110054039A1, “USE OF ALKYL SULFATES OR SULFONATES AGAINST PROPIONIBACTERIUM ACNES” (priority 2008, published 2011)
Converted amounts (≈) assume the structure as drawn. Structures can show the parent of a compound that is named as a salt. Where two headings read alike, the source gives them in different places.

Tests used:
Assay type in all cases: cell-based
[1] = test system: Propionibacterium acnes NCTC 737; experiment: Minimum Biocidal (Bactericidal) Concentration (MBC) assay; conditions: P. acnes NCTC 737; for MBC: sub-culture on antibiotic-free agar after MIC assay
Protocol: (§1) The test micro-organism represented the cutaneous propionibacteria. […] The propionibacteria are clinically significant due to their involvement in acne. This is a very common, complex and multi-factorial skin disease in which P. acnes and other Propionibacterium spp. […] They are also opportunistic pathogens in compromised hosts.
(§2) The propionibacteria were cultured and maintained on Wilkins-Chalgren Anaerobe Medium (agar and broth) at pH 6.0; all cultures were incubated anaerobically at 37° C. for 72 hours.
This assay, normally carried out after an MIC assay, determines the minimum concentration of a compound that is lethal to the micro-organism being tested.
These samples were then individually sub-cultured on antibiotic-free agar medium, under the incubation conditions described above. Following incubation they were examined visually for microbial growth.
(§3) MIC, MBC and DDA assays, as described above, were carried out using as the test compound sodium n-tetradecyl sulphate (STS, ex Sigma Aldrich, UK), dissolved in distilled water. All the experiments were conducted in triplicate. For the DDA experiments, 200 μg of the test compound was loaded onto each disc.
(§4) The MIC/MBC experiments were conducted in triplicate, with the exception of those for SDS and ADS which were conducted in duplicate. The DDAs were performed either in triplicate, in which case standard deviations are quoted in parentheses, or as a single replicate. For the DDA experiments, 200 μg of the test compound was loaded onto each disc.

[2] = test system: Propionibacterium acnes NCTC 737; experiment: Disc Diffusion Assay (DDA); conditions: P. acnes NCTC 737, 200 μg of test compound per disc; for zone of inhibition at 200 µg/disc: Cutibacterium acnes, NCTC737, read-out: DDA (diameter of zone of inhibition)
Protocol: as §1, §2
This is an internationally recognised standard method for qualitatively assessing the antimicrobial activity of a compound.
(§5) A sterile paper disc was impregnated with a sample of the test compound in a suitable solvent and 30 minutes allowed for the solvents to evaporate (where possible). The disc was then placed on an agar plate onto which the test micro-organism had been inoculated. The plate was then incubated under the conditions described above, following which it was examined visually for signs of microbial growth. […] The diameter of this zone of ‘inhibition’ was measured using a ProtoCOL™ automated zone sizer (Synbiosis, Cambridge, UK).
as §3, §4

[3] = test system: Propionibacterium acnes NCTC 737; experiment: Supplemented Disc Diffusion Assay (agar with salt or lipid); conditions: P. acnes NCTC 737, 200 μg per disc; for zone of inhibition at 200 µg/disc: Cutibacterium acnes, NCTC737, 72 h
Protocol: as §1, §2, §5
Performance under these conditions can provide a more reliable indication of activity on topical application.
as §3, §4

[4] = test system: Propionibacterium acnes NCTC 737; experiment: Minimum Inhibitory Concentration (MIC) assay, broth microdilution; conditions: for MIC: P. acnes NCTC 737, Wilkins-Chalgren broth pH 6.0, anaerobic, 37° C., 72 hours
Protocol: as §1, §2
This is a standard international method for quantitatively assessing the antimicrobial activity of a compound in a liquid medium. […] The culture media were as described above.
The wells were inoculated with a liquid suspension of freshly grown micro-organism and incubated under the conditions described above. After incubation, the microtitre plate was examined visually (with the aid of a light box) for cloudiness in each well, which would indicate microbial growth. The MIC value was recorded as the lowest concentration of test compound required to inhibit microbial growth, ie the lowest concentration for which the liquid in the well remained clear.
The assays included both negative (culture medium with no micro-organisms) and positive (culture medium plus diluting solvent plus micro-organism) controls.
as §3, §4

[5] = Cutibacterium acnes, NCTC737, read-out: MBC
[6] = agar supplemented with sodium chloride (100 mM), read-out: DDA + salt
[7] = agar supplemented with triolein at 1% v/v, read-out: DDA + lipid
[8] = Cutibacterium acnes, NCTC737, read-out: MIC
[9] = agar supplemented with sodium chloride (100 mM)
[10] = agar supplemented with triolein at 1% v/v

Molecule | MIC [4, 8] [µg/mL] | MBC [1, 5] [µg/mL] | MIC/MBC ratio [1] | zone of inhibition at 200 µg/disc [2] [mm] | zone of inhibition at 200 µg/disc [3, 6] [mm] | zone of inhibition at 200 µg/disc [3, 7] [mm] | MBC [1] [µg/mL] | DDA (diameter of zone of inhibition) [2] [mm] | DDA + salt [3, 9] [mm] | DDA + lipid [3, 10] [mm] | MIC [4] [µg/mL] | DDA (diameter of zone of inhibition) ([2]; sulphate) [mm] | DDA + salt ([3]; agar supplemented with sodium chloride (100 mM), sulphate) [mm] | DDA + lipid ([3]; agar supplemented with triolein at 1% v/v, sulphate) [mm] | antibacterial activity against P. acnes NCTC 737 (in words) ([4]; summary of MIC, MBC and DDA results)
CCCCCCCCCCCCCCS(=O)(=O)O.[Na] [Sodium 1-tetradecane sulphonic acid, sodium 1-tetradecane sulphonic acid] | 3.9 | 15.6 | 0.25 | 11.2 | 12.4 | 9.61 | – | – | – | – | – | – | – | – | –
CCCCCCCCCCS(=O)(=O)[O-].[Na+] [Sodium 1-decane sulphonate, sodium 1-decane sulphonate] | > 250 | > 250 | – | 0 | 0 | 0 | – | – | – | – | – | – | – | – | –
CCCCCCCCS(=O)(=O)O.[Na] [Sodium 1-octane sulphonic acid, sodium 1-octane sulphonic acid] | > 250 | > 250 | – | 0 | 0 | 0 | – | – | – | – | – | – | – | – | –
CCCCCCCCCCCCOS(=O)(=O)O.NC(CO)(CO)CO [Trizma ® dodecyl sulphate, Trizma® (2-amino-2-(hydroxymethyl)-1,3-propanediol, alsoknownas ‘Tris’) dodecyl sulphate] | – | – | 0.5 | – | – | – | 62.5 | 0.00 | 0.00 | 0.00 | 31.25 | – | – | – | –
CCCCCCCOS(=O)(=O)[O-].[Na+] [Sodium-n-heptyl sulphate, sodium-n-heptyl sulphate] | > 250 | > 250 | – | 0 | 0 | 0 | – | – | – | – | – | – | – | – | –
CCCCS(=O)(=O)[O-].[Na+] [Sodium 1-butane sulphonate, sodium 1-butane sulphonate] | > 250 | > 250 | – | 0 | 0 | 0 | – | – | – | – | – | – | – | – | –
CCCCCCCCCCCCOS(=O)(=O)O.N [Ammonium dodecyl sulphate (ADS), ammonium dodecyl sulphate] | 31.2 | 125 | 0.25 | 22.2 | 24.1 | 20.3 | – | – | – | – | – | – | – | – | –
CCCCCCCCCCCCCCOS(=O)(=O)O [Sodium n-tetradecyl sulphate, sodium n-tetradecyl sulphate] | 0.98 | 0.98 | 1 | 29.9 | 31.6 | 33.7 | – | – | – | – | – | 29.87 | 31.62 | 33.67 | highly active
triethanolamine lauryl sulphate [Triethanolamine dodecyl sulphate] | – | – | 0.25 | – | – | – | 15.6 | 30.19 | 28.33 | 25.53 | 3.9 | – | – | – | –
CCCCCCCCCCCC(=O)O [Laurie acid, reference compound] | – | – | – | – | – | – | 31.25 (≈ 0.156 mM) | – | – | – | 15.6 (≈ 0.0779 mM) | – | – | – | –

More lines, main results first:

MIC [4, 8] [µg/mL] | Molecule | MBC [1, 5] [µg/mL] | MIC/MBC ratio [1] | zone of inhibition at 200 µg/disc [2] [mm] | zone of inhibition at 200 µg/disc [3, 6] [mm] | zone of inhibition at 200 µg/disc [3, 7] [mm] | MBC [1] [µg/mL] | DDA (diameter of zone of inhibition) [2] [mm] | DDA + salt [3, 9] [mm] | DDA + lipid [3, 10] [mm] | MIC [4] [µg/mL] | DDA (diameter of zone of inhibition) ([2]; sulphate) [mm] | DDA + salt ([3]; agar supplemented with sodium chloride (100 mM), sulphate) [mm] | DDA + lipid ([3]; agar supplemented with triolein at 1% v/v, sulphate) [mm] | antibacterial activity against P. acnes NCTC 737 (in words) ([4]; summary of MIC, MBC and DDA results)
> 250 | CCCCCCOS(=O)(=O)[O-].[Na+] [Sodium n-hexyl sulphate, sodium n-hexyl sulphate] | > 250 | – | 0 | 0 | 0 | – | – | – | – | – | – | – | – | –
31.2 | CCCCC(CC)CCC(CC(C)C)OS(=O)(=O)O (stereo not shown) [7-ethyl-2-methyl-4-hendecanol sulphate sodium salt] | 62.5 | 0.5 | 28.5 | 30.8 | 28.6 | – | – | – | – | – | – | – | – | –
125 | CCCCCCCCCCCCS(=O)(=O)[O-].[Na+] [Sodium 1-dodecanesulphonate, sodium 1-dodecanesulphonate] | 250 | 0.5 | 18.1 | 23 | 18.4 | – | – | – | – | – | – | – | – | –
31.2 | CCCCCCCCCCCOS(=O)(=O)[O-].[Na+] [Sodium n-undecyl sulphate, sodium n-undecyl sulphate] | 62.5 | 0.5 | 17.3 | 19.9 | 17.7 | – | – | – | – | – | – | – | – | –
> 250 | CCCCCCCS(=O)(=O)[O-].[Na+] [Sodium 1-heptane sulphonate, sodium 1-heptane sulphonate] | > 250 | – | 0 | 0 | 10.6 | – | – | – | – | – | – | – | – | –
250 | CCCCCCCCCOS(=O)(=O)[O-].[Na+] [Sodium n-nonyl sulphate, sodium n-nonyl sulphate] | 250 | 1 | 0 | 0 | 0 | – | – | – | – | – | – | – | – | –
> 1000 | CCCCCCCCCCCCCC(=O)O [myristic acid, reference compound] | > 1000 | – | – | – | – | – | – | – | – | – | – | – | – | –
250 | CCCCCCCCCCOS(=O)(=O)[O-].[Na+] [Sodium decyl sulphate, sodium decyl sulphate] | > 250 | <1 | 0 | 0 | 0 | – | – | – | – | – | – | – | – | –
7.8 | CCCCCCCCCCCCCOS(=O)(=O)[O-].[Na+] [Sodium tridecyl sulphate, sodium tridecyl sulphate] | 7.8 | 1 | 32.2 | 33.3 | 31.8 | – | – | – | – | – | – | – | – | –
> 1000 | CCCCCCCCCCCCCCCC(=O)O [palmitic acid, reference compound] | > 1000 | – | – | – | – | – | – | – | – | – | – | – | – | –
